From patent US20230234943A1, “TREX1 INHIBITORS AND USES THEREOF” (Tempest Therapeutics, Inc., priority 2020, published 2023)

Target: T1, Human TREX1 enzyme (amino acids 1-242) (Homo sapiens, UniProt Q9NSU2)
T1 construct: Human TREX1 enzyme (amino acids 1-242)
T1 sequence (Q9NSU2 1-242): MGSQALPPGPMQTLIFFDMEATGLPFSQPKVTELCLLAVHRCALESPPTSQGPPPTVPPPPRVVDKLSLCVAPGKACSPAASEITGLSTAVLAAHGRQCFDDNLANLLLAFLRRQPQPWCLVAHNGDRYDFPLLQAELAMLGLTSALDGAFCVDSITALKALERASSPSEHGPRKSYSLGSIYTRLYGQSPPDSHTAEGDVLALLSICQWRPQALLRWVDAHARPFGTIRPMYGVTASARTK
Experiment: Human TREX1 enzymatic assay with dsDNA native oligonucleotide (Picogreen fluorescence)
Type: biochemical
Settings: 2 mM dithiothreitol in assay buffer; 50 nM dsDNA oligonucleotide; 30 min preincubation at 25° C.; read-out: TREX1/Human + DTT IC50 AVG
Protocol: Example A. Human TREX1 Enzymatic Assay with dsDNA Native Oligonucleotide
Human TREX1 enzyme (amino acids 1-242) was diluted in assay buffer (20 mM Tris pH 7.7, 5 mM MgCl2, 0.01% human serum albumin, 0.01% Brij™-35, 2 mM dithiothreitol) to a final concentration of 0.8 nM to 0.16 nM and added to a 96-well low-binding polypropylene plate. Test compounds were diluted in DMSO to 50× concentration (final DMSO concentration in reaction mixture of 2%) and added to the wells with a concentration ranging from 300 μM to 13 nM or 30 μM to 1.5 nM. The reaction mixtures were incubated for 30 minutes at 25° C. and a solution of annealed dsDNA oligonucleotide (5′-[…]-3′ and Comp: 5′-[…]-3′) was added to a final concentration of 50 nM. The reaction mixtures were incubated at 25° C. for 5-15 minutes and subsequently quenched by transferring part of the assay reaction to a solution of 100 mM ethylenediaminetetraacetic acid and 1:100 Picogreen™ (final concentration of […]) in a black plate with an opaque bottom. The fluorescence ([…]) was measured using a Molecular Devices SpectraMax plate reader. Wells containing oligonucleotide but no TREX1 enzyme were used as negative controls. Wells containing oligonucleotide, TREX1 enzyme, and DMSO were used as positive controls.

Compound	IC50 [µM]
COc1cc(-c2nc3ccccc3n2C2COC2)c(C)c(O)c1O [Example 1, 6-methoxy-3-methyl-4-(1-(oxetan-3-yl)-1H-benzo[d]imidazol-2-yl)benzene-1,2-diol]	10 to 100
O=C(O)c1ccc(-c2nc3ccncc3[nH]2)cc1O [Example 2, 2-hydroxy-4-(3H-imidazo[4,5-c]pyridin-2-yl)benzoic acid]	10 to 100
O=C(O)c1cc(-c2nc3ccccc3n2C2COC2)ccc1O [Example 3, 2-hydroxy-5-(1-(oxetan-3-yl)-1H-benzo[d]imidazol-2-yl)benzoic acid]	> 100
COc1cc(-c2nc3cc(N4CCC4)ccc3[nH]2)cc(O)c1O [Example 4, 5-(5-(azetidin-1-yl)-1H-benzo[d]imidazol-2-yl)-3-methoxybenzene-1,2-diol]	1 to 10
COc1cc(-c2nc3ccncc3[nH]2)cc(C(=O)O)c1O [Example 5, 2-hydroxy-5-(3H-imidazo[4,5-c]pyridin-2-yl)-3-methoxybenzoic acid]	1 to 10
COc1cc(-c2nc3cc(N4CCC4)ccc3[nH]2)cc(C(=O)O)c1O [Example 6, 5-[6-(azetidin-1-yl)-1H-benzimidazol-2-yl]-2-hydroxy-3-methoxybenzoic acid]	1 to 10
COc1cc(-c2nc3ccccc3[nH]2)cc(O)c1O [Example 9, 5-(1H-benzo[d]imidazol-2-yl)-3-methoxybenzene-1,2-diol]	> 100
COc1cc(-c2nc3ccccc3n2C)cc(O)c1O [Example 10, 3-methoxy-5-(1-methyl-1H-benzo[d]imidazol-2-yl)benzene-1,2-diol]	> 100
COc1cc(-c2nc3ccccc3n2C2COC2)cc(O)c1O [Example 11, 3-methoxy-5-(1-(oxetan-3-yl)-1H-benzo[d]imidazol-2-yl)benzene-1,2-diol]	10 to 100
COc1cc(-c2nc3ccncc3[nH]2)cc(O)c1O [Example 12, 5-(3H-imidazo[4,5-c]pyridin-2-yl)-3-methoxybenzene-1,2-diol]	10 to 100
COc1cc(-c2nc3ccccc3n2C2CCOC2)cc(O)c1O (stereo not shown) [Example 13, 3-methoxy-5-(1-(tetrahydrofuran-3-yl)-1H-benzo[d]imidazol-2-yl)benzene-1,2-diol]	10 to 100
COc1cc(-c2nc3cnncc3[nH]2)cc(O)c1O [Example 14, 5-(1H-imidazo[4,5-d]pyridazin-2-yl)-3-methoxybenzene-1,2-diol]	> 100
COCCn1c(-c2cc(O)c(O)c(OC)c2)nc2ccccc21 [Example 15, 3-methoxy-5-(1-(2-methoxyethyl)-1H-benzo[d]imidazol-2-yl)benzene-1,2-diol]	> 100
COc1c(C)c(-c2nc3ccccc3[nH]2)cc(O)c1O [Example 16, 5-(1H-benzo[d]imidazol-2-yl)-3-methoxy-4-methylbenzene-1,2-diol]	> 100

Further lines, results first:

IC50 [µM]	Compound
> 100	COc1cc(-c2nc3ccccc3[nH]2)c(C)c(O)c1O [Example 17, 4-(1H-benzo[d]imidazol-2-yl)-6-methoxy-3-methylbenzene-1,2-diol]
> 100	COc1cc(-c2nc3cc(N4CCNCC4)ccc3[nH]2)cc(O)c1O [Example 18, 3-methoxy-5-(5-(piperazin-1-yl)-1H-benzo[d]imidazol-2-yl)benzene-1,2-diol]
> 100	COc1cc(-c2nc3cc(S(=O)(=O)Nc4ccccc4)ccc3[nH]2)cc(O)c1O [Example 19, 2-(3,4-dihydroxy-5-methoxyphenyl)-N-phenyl-1H-benzo[d]imidazole-5-sulfonamide]
> 100	CNS(=O)(=O)c1ccc2[nH]c(-c3cc(O)c(O)c(OC)c3)nc2c1 [Example 20, 2-(3,4-dihydroxy-5-methoxyphenyl)-N-methyl-1H-benzo[d]imidazole-5-sulfonamide]
> 100	COc1cc(-c2nc3c(C)cccc3[nH]2)cc(O)c1O [Example 21, 3-methoxy-5-(4-methyl-1H-benzo[d]imidazol-2-yl)benzene-1,2-diol]
1 to 10	COc1cc(-c2nc3cc(N4CCN(C(=O)CCCC[C@@H]5SC[C@@H]6NC(=O)N[C@@H]65)CC4)ccc3[nH]2)cc(O)c1O [Example 23, (3aS,4S,6aR)-4-(5-(4-(2-(3,4-dihydroxy-5-methoxyphenyl)-1H-benzo[d]imidazol-5-yl)piperazin-1-yl)-5-oxopentyl)tetrahydro-1H-thieno[3,4-d]imidazol-2(3H)-one]
> 100	COc1cc(-c2nc3cc(N4CCN(C)CC4)ccc3[nH]2)cc(O)c1O [Example 24, 3-methoxy-5-(5-(4-methylpiperazin-1-yl)-1H-benzo[d]imidazol-2-yl)benzene-1,2-diol]
> 100	COc1cc(-c2nc3cc(N4CCOCC4)ccc3[nH]2)cc(O)c1O [Example 25, 3-methoxy-5-(5-morpholino-1H-benzo[d]imidazol-2-yl)benzene-1,2-diol]
> 100	COc1cc(-c2nc3cc(N4CCN(C(C)=O)CC4)ccc3[nH]2)cc(O)c1O [Example 26, 1-(4-(2-(3,4-dihydroxy-5-methoxyphenyl)-1H-benzo[d]imidazol-5-yl)piperazin-1-yl)ethanone]
10 to 100	COc1cc(-c2nc3cc(N4CCN(C(C)=O)CC4)ccc3n2C(C)=O)cc(O)c1O [Example 27, 1-(4-(1-acetyl-2-(3,4-dihydroxy-5-methoxyphenyl)-1H-benzo[d]imidazol-5-yl)piperazin-1-yl)ethanone]
10 to 100	COc1cc(-c2nc3cc(N4CCC4)ccc3n2C2CCOC2)cc(C(=O)O)c1O (stereo not shown) [Example 28, 5-(5-(azetidin-1-yl)-1-(tetrahydrofuran-3-yl)-1H-benzo[d]imidazol-2-yl)-2-hydroxy-3-methoxybenzoic acid]
> 100	CCn1c(-c2cc(O)c(O)c(OC(C)C)c2)nc2cccnc21 [Example 29, 5-(3-ethyl-3H-imidazo[4,5-b]pyridin-2-yl)-3-isopropoxybenzene-1,2-diol]
10 to 100	COc1cc(-c2nc3cc(N4CCN(C(=O)c5ccccc5)CC4)ccc3[nH]2)c(C(F)(F)F)c(O)c1O [Example 30, (4-(2-(3,4-dihydroxy-5-methoxy-2-(trifluoromethyl)phenyl)-1H-benzo[d]imidazol-5-yl)piperazin-1-yl)(phenyl)methanone]
1 to 10	COc1cc(-c2nc3cc(N4CCN(C(=O)c5ccccc5)CC4)ccc3[nH]2)cc(O)c1O [Example 31, (4-(2-(3,4-dihydroxy-5-methoxyphenyl)-1H-benzo[d]imidazol-5-yl)piperazin-1-yl)(phenyl)methanone]
10 to 100	COc1cc(-c2nc3cc(N4CCN(C(=O)c5cccnc5)CC4)ccc3[nH]2)cc(O)c1O [Example 32, (4-(2-(3,4-dihydroxy-5-methoxyphenyl)-1H-benzo[d]imidazol-5-yl)piperazin-1-yl)(pyridin-3-yl)methanone]
10 to 100	C=CCCC(=O)N1CCN(c2ccc3[nH]c(-c4cc(O)c(O)c(OC)c4)nc3c2)CC1 [Example 33, 1-(4-(2-(3,4-dihydroxy-5-methoxyphenyl)-1H-benzo[d]imidazol-5-yl)piperazin-1-yl)pent-4-en-1-one]
10 to 100	C=CCCC(=O)N1CCN(c2ccc3c(c2)nc(-c2cc(O)c(O)c(OC)c2)n3C(=O)CCC=C)CC1 [Example 34, 1-(4-(2-(3,4-dihydroxy-5-methoxyphenyl)-1-(pent-4-enoyl)-1H-benzo[d]imidazol-5-yl)piperazin-1-yl)pent-4-en-1-one]
